# Measured values reported in patent US20260014194A1, “COMBINATIONS COMPRISING METAP2 INHIBITORS FOR THE TREATMENT OF CANCER” (SynDevRx, Inc., priority 2022, published 2026).
# How the values were obtained:
# MCF-7 cells = test: MCF-7 mammary fat pad tumor model: tumor volume and tumor growth inhibition; assay type: in vivo, NU/j mice; conditions: inavolisib 25 mg/kg PO QD
# Description: (§1) Animals: Female NU/j mice, 6 weeks of age upon delivery, were received and acclimated at 5 mice per cage for a minimum of 7 days. Mice were housed in autoclaved caging with autoclaved water throughout the course of the study. The animals had free access to food (irradiated chow 2920X) and water. The animals were housed in a temperature and humidity-controlled room with a 12-hour light cycle.
# Cell Culture: MCF-7 cells were cultured in Dulbecco's Modified Eagle Medium (DMEM) with 10% FBS.
# Tumor Cell Implantation: On the day of implantation, cells were washed 1× with phosphate-buffered saline (PBS). Following washing, cells were pelleted (5 min @1000 rpm, RT) and then counted with a hemocytometer. A cell concentration of 5×10^6 per mouse was re-suspended in an appropriate amount of PBS and 1:1 Matrigel (kept on ice until implantation). Forty-eight hours prior to cell implantation, a 17-β estradiol pellet (0.36 mg 60-day slow release pellet) was implanted subcutaneously between the scapulae of each mouse. […]
# Tumor Assessment: prior to cell implantation, all animals were ear tagged. Beginning 5 days post cell implantation, tumors were measured two times weekly (length×width) using a wireless Mitutoyo UWAVE-T digital calipers in conjunction with UWAVE-R to record measurements. […] Randomization was determined by tumor volume of all of the mice. […]
# [1] = Body weight in MCF-7 tumor-bearing mice; assay type: in vivo, NU/j mice; conditions: FIG. 34; compared to vehicle group; Compound 1 8 mg/kg, inavolisib 25 mg/kg
# Description: as §1
# Inavolisib was administered orally (PO) once per day (QD) at an amount of 25 mg/kg for the duration of the study.
structure (smiles),measurement,setting,value
"C[C@H](Nc1ccc2c(c1)OCCn1cc(N3C(=O)OC[C@H]3C(F)F)nc1-2)C(N)=O [Inavolisib, inavolisib]",Tumor Growth Inhibition,"MCF-7 cells; Day 25, Compound 1 8 mg/kg SC Q4D",74%
same,Tumor Volume on Day 25,"MCF-7 cells; starting tumor volume 59 mm^3, Compound 1 8 mg/kg SC Q4D, vehicle 469 mm^3",167 mm^3
same,Weight loss (body weight change over the study),[1],increased as compared to the vehicle group
